Laboratory results reported in US20090326234A1, “(S)-(-)-Amlodipine Camsylate or Hydrate Thereof And Pharmaceutical Composition Comprising Same” (Hanmi Pharm Co., Ltd., priority 2006, published 2009).
Like-named read-outs stand apart in the source and are kept apart here.

Details: for Purity (area %): HPLC; for degradation: after 36 hours exposure to sunlight; for appearance after exposure to sunlight: exposed to sunlight
[1] = Initial, before exposure to sunlight

Description: 100 mg each of the above-mentioned 6 salts was respectively placed in 6 test tubes to prepare a total of 36 samples (6 samples per salt), and they were exposed to sunlight for 36 hours. Then, samples of each salt were taken at 6 hour-intervals and stored in a cool and dark place. After 36 hours, each sample was diluted with a 20 mM ammonium acetate buffer solution (pH=5.0)—acetonitrile mixture (1:1, v/v) and analyzed by HPLC under the following conditions: • Column: Symmetry C8 (4.6 mm×100 mm, 3.5 μm, Water, US) • Eluent: 1 l of a solution of 7 g perchloric acid monohydrate and 1.74 g potassium monohydrogen phosphate in purified water, which adjusted to pH 2.8 by the addition of phosphoric acid.

SMILES | Purity (area %) [1] [area %] | Purity (area %) (exposed to sunlight 6 hours) | Purity (area %) (exposed to sunlight 12 hours) | Purity (area %) (exposed to sunlight 18 hours) | Purity (area %) (exposed to sunlight 24 hours) | Purity (area %) (exposed to sunlight 30 hours) | Purity (area %) (exposed to sunlight 36 hours) | degradation | appearance after exposure to sunlight
CC1(C)C2CCC1(CS(=O)(=O)O)C(=O)C2.CCOC(=O)C1=C(COCCN)NC(C)=C(C(=O)OC)[C@@H]1c1ccccc1Cl.O (racemic) [(±)-10-Camsylate hydrate of Ex. 3, S-(−)-amlodipine (±)-10-camsylate hydrate] | 99.8 | 99.9 | 99.8 | 99.7 | 99.6 | 99.4 | 99.3 |  | 
CCOC(=O)C1=C(COCCN)NC(C)=C(C(=O)OC)[C@@H]1c1ccccc1Cl.O=S(=O)(O)c1ccccc1 [Besylate, (S)-(−)-amlodipine besylate] | 99.8 | 99.9 | 99.4 | 98.5 | 96.4 | 94.4 | 93.4 | about 7% | color change of their surface from off-white to brown, and they becomes partially melted
CCOC(=O)C1=C(COCCN)NC(C)=C(C(=O)OC)C1c1ccccc1Cl (stereo not drawn) [Nicotinate dehydrate, (s)-(−)-amlodipine nicotinate dihyrate] | 99.8 | 99.6 | 99.0 | 98.3 | 98.3 | 98.2 | 97.9 | ~2% | 
CC1(C)[C@H]2CC[C@]1(CS(=O)(=O)O)C(=O)C2.CCOC(=O)C1=C(COCCN)NC(C)=C(C(=O)OC)[C@@H]1c1ccccc1Cl [(R)-Camsylate of Ref. Ex. 1, S-(−)-amlodipine (R)-camsylate] | 99.8 | 99.9 | 99.7 | 99.0 | 98.1 | 96.2 | 94.8 | about 5% | color change of their surface from off-white to brown, and they becomes partially melted
CC1(C)[C@@H]2CC[C@@]1(CS(=O)(=O)O)C(=O)C2.CCOC(=O)C1=C(COCCN)NC(C)=C(C(=O)OC)[C@@H]1c1ccccc1Cl [(1S)-(+)-10-Camsylate anhydride of Ex. 2, S-(−)-amlodipine (1S)-(+)-10-camsylate anhydride] | 99.9 | 99.9 | 99.9 | 99.9 | 99.8 | 99.7 | 99.7 |  | 
CC1(C)[C@@H]2CC[C@@]1(CS(=O)(=O)O)C(=O)C2.CCOC(=O)C1=C(COCCN)NC(C)=C(C(=O)OC)[C@@H]1c1ccccc1Cl.O [(1S)-(+)-10-Camsylate hydrate of Ex. 1, S-(−)-amlodipine (1S)-(+)-10-camsylate hydrate] | 99.9 | 99.9 | 99.9 | 99.8 | 99.8 | 99.7 | 99.7 |  | 
